In patent publication US20060183794A1, “Drug composition containing nf-kb inhibitor” (priority 2002, published 2006):

Legend:
[1] = system: adhesion of leukocytes and HL-60 cells to HUVECs; test: Adhesion of leukocytes and HL-60 cells to TNF-α-stimulated HUVECs; format: cell-based, human; settings: DHMEQ 3 μg/ml; TNF-α stimulation 3, 6, 9 hours
Description: HUVECs were plated 24 well plates and confluently cultured. The culture medium was composed of 9.8 g/l medium 199 (provided from Nissui), 1.8 g/l NaHCO3 (Wako), 10 ml/l 1M Hepes buffer (Sigma), 30 mg/l ECGS (Becton Dickinson), 6 ml/l heparin sodium injection (Takeda Pharmaceutical), and 10% heat-inactivated FBS (JRH). Subsequently, the following experiments were conducted. […] In this experiment, mononuclear cells isolated by the specific gravity centrifugation method were used as leukocytes.
After stimulation with TNF-α, the wells were washed twice with HBSS+ (provided from Nissui) and the culture medium was changed to 500 μl of a fresh medium composed of 9.8 g/l medium 199 (provided from Nissui), 1.8 g/l NaHCO3 (Wako), 10 ml/l 1M Hepes buffer (Sigma), 30 mg/l ECGS (Becton Dickinson), 6 ml/l heparin sodium injection (Takeda Pharmaceutical), and 10% heat-inactivated FBS (JRH). Leukocytes and HL-60 cells were placed in wells at 2×10^5 cells/well and 7×10^4 cells/well, respectively. […] That state was photographed and the number of cells adhered to HUVECs was counted.

[2] = system: K562; test: Hoechst staining apoptosis assay, control cell line K562; format: cell-based; settings: 10 μg/ml, 72 hours
Description: DHM2EQ was added to the ATL cell lines (MT-1 and TL-Om1) and a control cell line (K562) at a final concentration of 10 μg/ml, followed by incubation for 72 hours. Subsequently, apoptosis was examined by observing nuclear […] or fragmentation on Hoechst staining with a fluorescence microscope. Cells to which the solvent DMSO had been added in equal volume were also examined in the same manner.

[3] = system: human breast cancer cell line MCF-7 transplanted into SCID mice; test: MCF-7 subcutaneous tumor model in SCID mice; format: in vivo; settings: DHMEQ 4 mg/kg i.p. three times per week
Description: Subcutaneous tumor model SCID mice (CLEA Japan) were given DHMEQ (4 mg/kg) three days a week and the volume of the tumors were periodically measured for examination of the suppressive effect of DHMEQ on tumor growth. The body weights of the mice were also measured simultaneously.
MCF-7 (1×10^6 cells) suspended in 100 μl of PBS was inoculated subcutaneously into the back of six-week-old SCID mice. DHMEQ was suspended in 0.5% methylcellulose (Nacalai Tesque) solution at 4 mg/kg in 200 μl. The drug-containing solution or 0.5% methylcellulose solution (200 μl) was intraperitoneally administered three times per week (n=8/group), starting on the next day after inoculation. The major axis and minor axis of the tumors were measured with calipers every seven days. The tumor volume was calculated as follows: (major axis)×(minor axis)^2/2. The body weights were also measured simultaneously.

[4] = system: human pancreatic cancer cell line PK-2; test: Human pancreatic cancer PK-2 subcutaneous tumor in SCID mice; format: in vivo; settings: PK-2 s.c., 12 mg/kg i.p.
Description: The in vivo suppressive effect of DHMEQ on proliferation of tumor cells in human pancreatic cancer. The human pancreatic cancer cell line PK-2 (2×10^6 cells) was inoculated subcutaneously in the right back of SCID mice (n=7) and then 12 mg/kg DHMEQ was injected intraperitoneally (i.p.) at a dose of 200 μl every other day for five days. Subsequently, the major axis and minor axis of the tumors were measured every seven days. The tumor volume was calculated as follows: (major axis)×(minor axis)^2×0.5.

[5] = target: T1, NF-κB (Homo sapiens, UniProt P19838+Q04206); test: Gel shift assay of constitutive NF-κB activation in ATL cell lines; format: cell-based; design: endogenous in cells; settings: MT-1 and TL-Om1; 10 μg/ml DHM2EQ, 12 hours
T1 sequence (Q04206 whole entry): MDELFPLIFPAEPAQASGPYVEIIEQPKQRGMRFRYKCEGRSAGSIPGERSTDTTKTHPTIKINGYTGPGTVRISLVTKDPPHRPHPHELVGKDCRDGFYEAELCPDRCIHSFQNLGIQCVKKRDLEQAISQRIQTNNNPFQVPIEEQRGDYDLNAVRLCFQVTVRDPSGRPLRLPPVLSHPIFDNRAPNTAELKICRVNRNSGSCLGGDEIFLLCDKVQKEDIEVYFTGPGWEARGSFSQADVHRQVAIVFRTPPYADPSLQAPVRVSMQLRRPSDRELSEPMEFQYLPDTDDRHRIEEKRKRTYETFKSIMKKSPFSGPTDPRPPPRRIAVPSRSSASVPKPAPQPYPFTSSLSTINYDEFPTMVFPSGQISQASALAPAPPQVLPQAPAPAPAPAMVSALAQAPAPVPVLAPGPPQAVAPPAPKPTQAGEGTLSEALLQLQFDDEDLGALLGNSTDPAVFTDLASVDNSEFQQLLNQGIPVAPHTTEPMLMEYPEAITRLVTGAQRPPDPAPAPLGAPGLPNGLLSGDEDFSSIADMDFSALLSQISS
T1 sequence (P19838 1-433 limits assumed): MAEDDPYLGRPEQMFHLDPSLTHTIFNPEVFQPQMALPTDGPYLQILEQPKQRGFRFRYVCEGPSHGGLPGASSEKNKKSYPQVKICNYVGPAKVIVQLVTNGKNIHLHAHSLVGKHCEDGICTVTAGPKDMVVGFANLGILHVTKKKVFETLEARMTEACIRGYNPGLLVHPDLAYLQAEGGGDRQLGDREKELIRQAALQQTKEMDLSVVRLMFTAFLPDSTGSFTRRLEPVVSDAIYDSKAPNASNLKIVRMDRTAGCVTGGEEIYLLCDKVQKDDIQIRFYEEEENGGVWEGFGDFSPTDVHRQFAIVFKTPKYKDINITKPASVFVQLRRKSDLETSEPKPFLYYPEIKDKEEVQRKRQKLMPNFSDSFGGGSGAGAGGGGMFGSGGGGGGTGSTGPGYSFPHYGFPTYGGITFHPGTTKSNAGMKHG
Description: The ATL cell lines (MT-1 and TL-Om1) and the control cell lines (K562 and Jurkat+TNF), 2×10^6 cells each, were treated with 10 μg/ml DHM2EQ for 12 hours, and nuclear extract was prepared from each cell line. Likewise, nuclear extract was prepared also from the cell lines not treated with DHM2EQ. MT-1 and TL-Om1 are the cell lines transformed with HTLV-1; NF-κB is activated in these cell lines. K562 (myelocytic leukemia cell line) is a cell line in which constitutive NF-κB is not confirmed (a negative control), and Jurkat+TNF is a […] consensus oligomers (Promega) were end-labeled with [γ-^32P]-ATP and polynucleotide kinase (PNK) to prepare ^32P-labeled NF-κB probes.
The equivalent of 2 μg of nuclear extract protein was mixed with NF-κB probes (the equivalent of 10,000 cpm) in a volume of 20 μl and reacted at room temperature for 30 min. The solution after the reaction was subjected to 7.5% polyacrylamide gel electrophoresis. The gel was then dried and exposed to an X-ray film.

[6] = target: T1, NF-κB; test: p6kb-Luc luciferase reporter assay of NF-κB activity in JCA-1 cells; format: cell-based; design: endogenous in cells; settings: 2.5, 5, 10, 20, 40 μg/ml DHMEQ, 8 hours
Description: To measure the inhibitory effect of DHMEQ on activity of NF-κB, the activity of NF-κB on DHMEQ at various concentrations was measured using transcriptional activity of NF-κB as an index. As the reporter, the vector construct (p6kb-Luc), containing a luciferase gene as the reporter in the downstream of the promoter containing six tandem copies of the NF-κB binding sequence, was used. This reporter plasmid was transfected into JCA-1 cells using GenePOETER™ (Gene Therapy Systems). Fourteen hours after the transfection, 2.5, 5, 10, 20, and 40 μg/ml DHMEQ was added to the cell medium, followed by further incubation for 8 hours. Subsequently, cells were recovered and luciferase activity was measured. […] Each luciferase activity was measured and the absolute value was presented by standardization. All experiments were conducted independently three times, producing averages and standard deviations.

[7] = target: T1, NF-κB; test: 6 kB-Luc reporter assay of NF-κB transcription in multiple myeloma cell lines; format: cell-based; design: endogenous in cells; host or cells: MM cell lines KMM1, RPMI8226, U266; settings: 5 μg/ml, 12-hour treatment; compared with non-treated cells
Description: Next, the inhibitory effect on activation of NF-κB was investigated using the reporter assay. First, 6 kB-Luc plasmid was introduced by transfection into the MM cell lines, KMM1, RPMI8226, and U266 (transfected on a scale of a 2×10^5 cells/transfection using DMRIE-C (Invitrogen)) After 12 hours, 12-hour treatment of cells with 5 μg/ml DHM2EQ was started and the suppressive effect of DHMEQ on the transcription by NF-κB was examined. […] The suppressive effect of DHMEQ on transcription by NF-κB was therefore indicated.

With O=C(NC1=CC(=O)C2OC2C1O)c1ccccc1O (centres unmarked) [DHMEQ, 5,6-epoxy-4-hydroxy-3-salicyloylamino-2-cyclohexenone] the “adhesion of leukocytes and HL-60 cells to HUVECs” value [1] was “markedly suppressed”, the “apoptosis (Hoechst staining)” value [2] was “apoptosis was not observed” and the “mortality or weight loss of the mice” value [3] was “No mortality or weight loss”. For the same molecule, the “tumor growth (tumor volume)” value ([3]; MCF-7 s.c.) was “significant suppressive effect”, the “proliferation of tumor cells (tumor volume)” value [4] was “significantly suppresses” and the “signal of NF-κB (gel shift)” value [5] was “almost lost”. For the same molecule, the “NF-κB activity (luciferase) in JCA-1 cells” value [6] was “concentration-dependently inhibits” and the “transcription by NF-κB suppressed by (reporter assay)” value [7] was “about 50%”.
